Source: patent publication US7935182B2, “Solution for wood preservation” (priority 2004, dated 2011)

Test: copper leaching from wood impregnated with preservative solution
Assay type: physicochemical

Row | SMILES | copper leaching rates compared to diethanolamine or triethanolamine (wood impregnated with preservative solution, ethanolamine used as amine source) | Copper leached in % (wood treated with copper based preservative solution)
1 | NCCO [ethanolamine] | Almost ten times lowest | –
2 | O=S(=O)([O-])[O-].[Cu+2] [Copper (II) sulphate] | – | 45-55%^
